Counter-ions that a name gives are not always drawn. Like-named read-outs stand apart in the source and are kept apart here.
Columns and labels:
[1] = Stability study: influencing factors (high temperature, high humidity, light exposure), HPLC content; type: physicochemical; conditions: for Content, 0 day: HPLC external standard; for Content, High humidity, 30 days: high humidity (RH80%); for Content, High temperature, 30 days: high temperature (60° C.); for Content, Light exposure, 30 days: light exposure (5000 Lux)
Method: 3 parts of each of the samples, carebastine (Comparative Example 2), the crystal form of carebastine p-toluenesulfonate (Example 2), and the amorphous form of carebastine p-toluenesulfonate (Example X), were weighed and placed in a weighing bottle, respectively, and each group of samples was placed under conditions of high temperature (60° C.), high humidity (RH80%) and light exposure (5000 Lux). Then, the samples were taken for detection after 30 days.
Detection method: An appropriate amount of each sample was taken, weighed precisely, dissolved with acetonitrile and quantitatively diluted into a solution containing about 0.08 mg of sample per 1 ml. High performance liquid chromatography (HPLC) was used, with octadecylsilane-bonded silica gel as filler, water-acetonitrile (1:1) as mobile phase, a detection wavelength of 256 nm, a column temperature of 35° C. and an injection volume of 10 μl. Each sample solution was injected into the liquid chromatograph instrument, and the chromatograms were recorded. The content of carebastine was calculated by an external standard method, and the impurity content was calculated by a peak area normalization method.

[2] = Hygroscopicity study (weight gain at 25° C., RH 80%, 24 h); type: physicochemical
Method: • (1) The day prior to the test, a dry glass weighing bottle (with an outer diameter of 50 mm and a height of 15 mm) with a lid was placed in a suitable constant temperature dryer (the lower part of which holds a saturated solution of ammonium chloride or ammonium sulphate) at 25° C.±1° C. or an artificial climate chamber (at a temperature of 25° C.±1° C. and a relative humidity of 80%±2%), and the weight (m1) of the bottle with the lid was precisely weighed. • (2) An appropriate amount of the sample to be tested was evenly laid in the weighing bottle, with a thickness of generally about 1 mm, and the weight (m2) of the bottle with the lid was precisely weighed. • (3) The weighing bottle was kept open and placed together with the lid under constant temperature and humidity for 24 h. • (4) The weighing bottle was covered with the lid, and the weight (m3) was precisely weighed. • (5) Percentage of weight gain=(m3−m2)/(m2−m1)×100%.

[3] = for half-life (T1/2) compared with Comparative Example 1 / peak time (Tmax) compared with Comparative Example 1: vs ebastine; for Tmax compared with Comparative Example 2 / half-life (T1/2) compared with Comparative Example 2 / increase in AUC0-t compared with Comparative Example 1 / increase in AUC0-t compared with Comparative Example 2 / increase in Cmax compared with Comparative Example 1 / increase in Cmax compared with Comparative Example 2 / AUC0-t / Cmax / T1/2 / Tmax: dog, in vivo; for increase in AUC0-t compared with Comparative Example 1 / increase in AUC0-t compared with Comparative Example 2 / increase in Cmax compared with Comparative Example 1 / increase in Cmax compared with Comparative Example 2 / AUC0-t / Cmax / T1/2 / Tmax: male; for AUC0-t / Cmax / T1/2 / Tmax: po, 2.23 mg
Method: Ebastine (Comparative Example 1), carebastine (Comparative Example 2), a crystal form of carebastine p-toluenesulfonate (Example 2) and an amorphous form of carebastine p-toluenesulfonate (Example X) were prepared into enteric capsules, respectively.
• Species: Beagle; • Level: normal level; • Animal number and gender: 8 males; • Age: […] old during grouping; • Body weight: the weight during grouping ranged from 8.90 to 10.3 kg, with an average of 10.0 kg.
Dose: in terms of carebastine, each group was dosed at equimolar dose, and appropriate amounts of compounds were weighed and filled into capsules. That is, the drug of carebastine in each capsule is 2.23 mg.
After the test compounds were filled into capsules, 2×4 crossover tests were carried out according to the table above. A 7-day elution period was counted from the start of administration. The corresponding test compounds were administered to each group in different test cycles.
All animals were fasted overnight (for 12 h or more) before each administration, and feeding was resumed 4 h after the administration. The animals had free access to drinking water.
Blood samples were collected at 0 h before administration, and at 10 min, 20 min, 30 min, 45 min, 1 h, 2 h, 3 h, 5 h, 6 h, 8 h, 10 h and 24 h after administration, for a total of 13 blood collection time points.
Approximately 2 mL of blood was collected from a forelimb vein at the set blood collection time points and placed in an EDTA-K2 anticoagulation tube. Whole blood samples were kept at room temperature for 1.5 h after the collection and then centrifuged (at 3000 g centrifugal force, 4° C.) for 10 min.
The concentration of carebastine in plasma was determined using liquid chromatography-mass spectrometry-mass spectrometry (HPLC-MS/MS).
The pharmacokinetic parameters of each group were calculated using the non-compartmental model with the WinNonlin software (version 8.3 or higher).

Content, 0 day [1] [%] | Content, High humidity, 30 days ([1]; 30 days) [%] | Content, High temperature, 30 days ([1]; 30 days) [%] | Content, Light exposure, 30 days ([1]; 30 days) [%] | Percentage of weight gain (%) [2] [%] | half-life (T1/2) compared with Comparative Example 1 ([3]; beagle) | peak time (Tmax) compared with Comparative Example 1 ([3]; beagle) | Tmax compared with Comparative Example 2 [3] | half-life (T1/2) compared with Comparative Example 2 [3] | increase in AUC0-t compared with Comparative Example 1 ([3]; beagle) | increase in AUC0-t compared with Comparative Example 2 ([3]; beagle) | increase in Cmax compared with Comparative Example 1 ([3]; beagle) | increase in Cmax compared with Comparative Example 2 ([3]; beagle) | AUC0-t ([3]; beagle) [ng·h/mL] | Cmax ([3]; beagle) [ng/mL] | T1/2 ([3]; beagle) [h] | Tmax ([3]; beagle) [h] | SMILES | further results
98.59 | 98.58 | 98.54 | 98.51 | 0.3 | prolonged | significantly shorter | essentially the same | prolonged | ~31% | ~17% | ~46% | ~37% |  |  |  |  | CC(C)(C(=O)O)c1ccc(C(=O)CCCN2CCC(OC(c3ccccc3)c3ccccc3)CC2)cc1.Cc1ccc(S(=O)(=O)O)cc1 [Example X, carebastine p-toluenesulfonate] | 
 |  |  |  |  |  |  |  |  |  |  |  |  | 749 ± 127 | 179 ± 85.7 | 4.06 ± 1.19 | 2.25 ± 0.7 | CC(C)(C)c1ccc(C(=O)CCCN2CCC(OC(c3ccccc3)c3ccccc3)CC2)cc1 [Comparative Example 1, ebastine] | 
99.18 | 98.11 | 98.12 | 87.28 | 6 |  |  |  |  |  |  |  |  | 840 ± 161 | 191 ± 51.4 | 3.74 ± 2.02 | 0.82 ± 0.52 | CC(C)(C(=O)O)c1ccc(C(=O)CCCN2CCC(OC(c3ccccc3)c3ccccc3)CC2)cc1 [Comparative Example 2, 2-(4-(4-(4-(diphenylmethoxy)piperidine-1-yl)butyryl)phenyl)-2-methylpropanoic acid, reference compound] | content decrease under high temperature and high humidity ([1]; 30 days, high temperature and high humidity): more than 1.0%; content decrease under light exposure ([1]; 30 days, light exposure): more than 10%; content of the maximum single impurity ([1]; after 30 days of influencing factor tests, peak area normalization): more than 0.5%
 |  |  |  |  |  |  |  |  |  |  |  |  |  |  |  |  | CC(C)(C(=O)O)c1ccc(C(=O)CCCN2CCC(OC(c3ccccc3)c3ccccc3)CC2)cc1 [Comparative Example 3, carebastine hydrochloride, reference compound] | Percentage of weight gain (%) ([2]; hydrochloride): 15.9%
99.42 | 99.42 | 99.43 | 99.39 | −0.1 | prolonged | significantly shorter | essentially the same | prolonged | about 55% | about 38% | about 65% | about 55% |  |  |  |  | CC(C)(C(=O)O)c1ccc(C(=O)CCCN2CCC(OC(c3ccccc3)c3ccccc3)CC2)cc1.Cc1ccc(S(=O)(=O)O)cc1 [Example 2, carebastine p-toluenesulfonate] | Cmax and AUC0-t compared with Example X ([3]; beagle, vs amorphous form): slightly higher; T1/2 compared with Example X ([3]; beagle, vs amorphous form): slightly longer
